“And” between values parts separate entries of the source, which are not always exact repeats. Equal values may be shown once.
Experiments:
[1] = molecular target: T1, AChE (Acetylcholinesterase) (Homo sapiens, UniProt P22303); assay: AChE/Enzymatic; type: biochemical
T1 construct: purchased R&D Systems

[2] = molecular target: T2, LCK (Lymphocyte Cell-Specific Protein-Tyrosine Kinase (Src family)) (Homo sapiens, UniProt P06239); assay: LCK/Binding (KINOMEscan)
T2 construct: made in house; host or cells: E. coli BL21-derived host (T7 phage) or HEK-293

[3] = molecular target: 5-Hydroxytryptamine (Serotonin) Receptor 1B (5-HT1B) (Homo sapiens, UniProt P28222); assay: 5-HT1B/cAMP; type: cell-based; details: EC50 (μM)
[4] = molecular target: T3, DAT (Dopamine transporter) (Homo sapiens, UniProt Q01959); assay: DAT/Transporter (fluorescent substrate uptake); type: cell-based
T3 construct: expressed in transfected cells

[5] = molecular target: T4, CAV1.2 (Voltage-gated L-type calcium channel) (Homo sapiens, UniProt Q13936); assay: CAV1.2/Ion Channel; type: cell-based
T4 construct: expressed in transfected cells

[6] = molecular target: T5, NET (Norepinephrine transporter) (Homo sapiens, UniProt P23975); assay: NET/Transporter (fluorescent substrate uptake); type: cell-based
T5 construct: expressed in transfected cells

[7] = molecular target: HRH2 (Histamine Receptor H2) (Homo sapiens, UniProt P25021); assay: HRH2/cAMP; type: cell-based
[8] = molecular target: AR (Nuclear Hormone Androgen Receptor) (Homo sapiens, UniProt P10275); assay: AR/NHR Nuclear Translocation; type: cell-based
[9] = molecular target: OPRD1 (Opioid Receptor Delta 1) (Homo sapiens, UniProt P41143); assay: OPRD1/cAMP; type: cell-based
[10] = molecular target: CNR1 (Cannabinoid Receptor 1) (Homo sapiens, UniProt P21554); assay: CNR1/cAMP; type: cell-based
[11] = molecular target: CHRM1 (Muscarinic acetylcholine Receptor M1) (Homo sapiens, UniProt P11229); assay: cell-based
[12] = molecular target: AVPR1A (Arginine Vasopressin Receptor 1A) (Homo sapiens, UniProt P37288); assay: AVPR1A/Calcium Flux; type: cell-based
[13] = molecular target: T6, nAChR(a4/b2) (Nicotinic acetylcholine Receptor α4 β2) (Homo sapiens, UniProt P17787+P43681); assay: cell-based; details: EC50 (μM)
T6 construct: expressed in transfected cells

[14] = molecular target: CCKAR (Cholecystokinin Receptor A) (Homo sapiens, UniProt P32238); assay: CCKAR/Calcium Flux; type: cell-based
[15] = molecular target: T7, COX1 (Cyclooxygenase 1) (Homo sapiens, UniProt P23219); assay: COX1/Enzymatic; type: biochemical
T7 construct: purchased BPS Bioscience

[16] = molecular target: T8, KvLQT1/minK (Homo sapiens, UniProt P51787); assay: KvLQT1/minK/Ion Channel; type: cell-based
T8 construct: expressed in transfected cells

[17] = molecular target: T9, SERT (Serotonin transporter) (Homo sapiens, UniProt P31645); assay: cell-based
T9 construct: expressed in transfected cells

[18] = molecular target: 5-Hydroxytryptamine (Serotonin) Receptor 2A (5-HT2A) (Homo sapiens, UniProt P28223); assay: 5-HT2A/Calcium Flux; type: cell-based; details: EC50 (μM)
[19] = molecular target: CHRM2 (Muscarinic acetylcholine Receptor M2) (Homo sapiens, UniProt P08172); assay: CHRM2/cAMP; type: cell-based
[20] = molecular target: DRD2S (Dopamine Receptor D2) (Homo sapiens, UniProt P14416); assay: DRD2S/cAMP; type: cell-based
[21] = molecular target: T10, NMDAR (1A/2B) (N-methyl-D-aspartate (NMDA) Glutamate Receptor 1A/2B) (Homo sapiens, UniProt Q05586+Q13224); assay: NMDAR (1A/2B)/Ion Channel; type: cell-based
T10 construct: expressed in transfected cells

[22] = molecular target: ADRA2A (Adrenergic Receptor on α2A) (Homo sapiens, UniProt P08913); assay: ADRA2A/cAMP; type: cell-based
[23] = molecular target: T11, hERG (Homo sapiens, UniProt Q12809); assay: hERG/Ion Channel; type: cell-based
T11 construct: expressed in transfected cells

[24] = molecular target: CNR2 (Cannabinoid Receptor 2) (Homo sapiens, UniProt P34972); assay: CNR2/cAMP; type: cell-based
[25] = molecular target: NAV1.5 (tetrodotoxin-resistant voltage-gated sodium channel) (Homo sapiens, UniProt Q14524); assay: cell-based
[26] = molecular target: T12, INSR (Insulin Receptor (tyrosine kinase)) (Homo sapiens, UniProt P06213); assay: INSR/Binding (KINOMEscan)
T12 construct: made in house; host or cells: E. coli BL21-derived host (T7 phage) or HEK-293

[27] = molecular target: EDNRA (Endothelin Receptor Type A) (Homo sapiens, UniProt P25101); assay: EDNRA/Calcium Flux; type: cell-based
[28] = molecular target: T13, COX2 (Cyclooxygenase 2) (Homo sapiens, UniProt P35354); assay: COX2/Enzymatic; type: biochemical
T13 construct: purchased BPS Bioscience

[29] = molecular target: HRH1 (Histamine Receptor H1) (Homo sapiens, UniProt P35367); assay: cell-based
[30] = molecular target: DRD1 (Dopamine Receptor D1) (Homo sapiens, UniProt P21728); assay: DRD1/cAMP; type: cell-based
[31] = molecular target: T14, ROCK1 (Rho Associated Coiled-Coil Containing Protein Kinase 1) (Homo sapiens, UniProt Q13464); assay: ROCK1/Binding (KINOMEscan)
T14 construct: made in house; host or cells: E. coli BL21-derived host (T7 phage) or HEK-293

[32] = molecular target: 5-Hydroxytryptamine (Serotonin) Receptor 2B (5-HT2B) (Homo sapiens, UniProt P41595); assay: 5-HT2B/Calcium Flux; type: cell-based; details: EC50 (μM)
[33] = molecular target: 5-Hydroxytryptamine (Serotonin) Receptor 1A (5-HT1A) (Homo sapiens, UniProt P08908); assay: 5-HT1A/cAMP; type: cell-based
[34] = molecular target: OPRK1 (Opioid Receptor Kappa 1) (Homo sapiens, UniProt P41145); assay: OPRK1/cAMP; type: cell-based
[35] = molecular target: GR (Nuclear Hormone Glucocorticoid Receptor) (Homo sapiens, UniProt P04150); assay: GR/NHR Protein Interaction; type: cell-based

Measured: EC50

CNC(C)Cc1ccc2ccsc2c1 (centres unmarked) [drawing 522]
0.959 µM: [18]; agonist
> 10 µM: [1] | [2] | [3]; antagonist | [5] | [7] | [8] | [9] | [10] | [11] | [12] | [14] | [15] | [16] | [17] | [19] | [20] | [21] | [22] | [23] | [24] | [25] | [26] | [27] | [28] | [29] | [30] | [31] | [32]; agonist | [33] | [34] | [35]
0.072 µM: [32]; antagonist
1.72 µM: [18]; antagonist
0.32 µM: [4]
0.024 µM: [3]; agonist
> 10 µM and 4.44 µM: [13]
0.684 µM: [6]
